In test [1] the test system is human breast adenocarcinoma (MDA-MB-231) cells. The test can be described thus: Antiproliferative assay (MTT or SRB), MDA-MB-231. It is filed as cell-based. The settings on record: for IC50: Homo sapiens, MDA-MB-231, read-out: IC50 ± SD, antiproliferative activity; for Calculated Selectivity Index SI: IC50 Balb/3T3 / IC50 MDA-MB-231. Here is the method: (§1) Cell preparation, an in vitro antiproliferative assay, and MTT and SRB cytotoxic tests were performed according to the literature.

Test [2] has as its system A549 cells. As to the kind of experiment: Apoptosis/necrosis assay, Annexin V-FITC/PI flow cytometry. It is filed as cell-based, human. The settings on record: for percentage of A549 cells undergoing apoptosis: 48 h, control 6.05 ± 0.17%; for induction of necrosis: A549, 48 h. On the procedure: (§2) The rate of cell apoptosis and necrosis was detected using Annexin V-FITC/PI double staining. […] Compound 3e turned out to be a stronger inducer of apoptosis than 3c. […] In turn, compound 3c induced apoptosis only at the concentrations of 10 and 20 µM, and the percentage of cells undergoing apoptosis increased from 6.05 ± 0.17% in the control to 10.14 ± 0.76% and 14.67 ± 0.68%, respectively (Figure 4B). Moreover, compound 3e at a concentration of 5 µM induced apoptosis to a similar level as cisplatin (CDDP) used at a concentration of 4 µM. To identify the mechanism of the 3c- and 3e-induced apoptosis in the A549 cells, the activation of effector caspase-3 was evaluated by flow cytometry. […] To further explore the antiproliferative activity of compounds 3c and 3e, the influence of both compounds on the distribution of cell cycle phases in the A549 cells was analyzed. […] The G2 checkpoint prevents cells from entering mitosis when DNA is damaged, providing an opportunity for repair and stopping the proliferation of damaged cells. […] Apoptosis is a crucial process involved in the regulation of tumor formation and in the treatment response; therefore, cancer therapy has been linked to activation of the apoptosis signal transduction pathway. Caspase-3, an executioner caspase, plays an important role in apoptosis and becomes a primary target for cancer treatment.
(§3) The fluorescence-activated cell sorting (FACS) technique was employed to analyze the 3c- and 3e-induced cell death, the activation of executive caspase-3, and the cell cycle in the A549 cells. The quantitative analysis of apoptosis and necrosis was performed using an Annexin V-fluorescein isothiocyanate (FITC)/ propidium iodide (PI) apoptosis kit (BD Biosciences, BD Pharmingen™, San Jose, CA, USA) as previously described. To determine the active form of caspase-3, the A549 cells were plated into 6-well plates at a density of 6 × 10^5 cells/well. The next day, the growth medium was replaced with a fresh one supplemented with compound 3c or 3e (10, 20, and 40 µM) or the DMSO vehicle (0.1%; control cells). After 48-h incubation, the samples were harvested and the level of active caspase-3 was determined using the phycoerythrin (PE) Active Caspase-3 Apoptosis Kit (BD Pharmingen™) according to the manufacturer’s instructions. The stained cells were analyzed using FACS Calibur, and data were analyzed using Cell Quest Pro Version 6.0 (BD Biosciences, San Jose, CA, USA) for the Macintosh operating system. The results were calculated as a percent of cells with active caspase-3 among all the analyzed cells. The cell cycle analysis was performed by determination of the DNA contents on the basis of PI staining as previously described.
Figure 4 Effect of compounds 3c and 3e and cisplatin (CDDP) on apoptosis induction in the A549 cell line. After the 48-h exposure to the indicated concentrations of the compounds, the cells were stained with annexin (An) V-FITC)/propidium iodide (PI) and examined with flow cytometry. (A) The representative graphs obtained by flow cytometric analysis: dot plots indicate the percentage of An−/PI+ necrotic cells (Q1), An+ /PI+ late apoptotic cells (Q2), An−/PI− viable cells (Q3), and An+ /PI− early apoptotic cells (Q4). (B) Statistical analysis of the apoptotic (early + late apoptosis) and necrotic rate populations after the 3c, 3e, and cisplatin (CDDP) treatment. Data are presented as mean ± SD from three independent experiments; *** p < 0.001 in comparison to the control; one-way ANOVA followed by Dunnett’s post hoc test.
On the technique in general: A flow cytometer gives signals particle by particle.

Test [3] deals with A549 cells. The test can be described thus: Cell cycle analysis, PI staining flow cytometry. It is filed as cell-based, human. As to conditions: 48 h, control 6.20 ± 0.23%. On the procedure: as §2, §3
Figure 6 Effect of compounds 3c and 3e on cell cycle distribution in A549 cells. After the treatment with the indicated concentrations of compounds 3c and 3e for 48 h, the cells were stained with propidium iodide and analyzed by flow cytometry. (A) Representative DNA histograms of A549 cells treated with compounds 3c and 3e. (B,C) Statistical analysis of the percentages of A549 cells in the sub-G1, G0/G1, S, and G2/M phases after treatment with compounds 3c and 3e, respectively. Data are expressed as means ± SD from three independent experiments. ** p < 0.01 and *** p < 0.001 in comparison to the control; one-way ANOVA followed by Tukey’s post hoc test.

Test [4] relates to human biphenotypic B myelomonocytic leukemia (MV4-11) cells. As to the kind of experiment: Antiproliferative assay (MTT or SRB), MV4-11. It is filed as cell-based. As to conditions: for IC50: Homo sapiens, MV4-11, MV-4-11, read-out: IC50 ± SD, antiproliferative activity; for Calculated Selectivity Index SI: IC50 Balb/3T3 / IC50 MV-4-11. On the procedure: as §1
The subject of test [5] is normal mouse fibroblast (BALB/3T3) cells. As to the kind of experiment: Antiproliferative assay (MTT or SRB), normal fibroblasts BALB/3T3. The settings on record: Balb/3T3 normal mouse fibroblasts; read-out: IC50 ± SD, antiproliferative activity. It is filed as cell-based. On the procedure:
Anticancer drugs are toxic to cancer cells, but also show some toxicity to healthy cells. […] The selectivity indexes for thiazoles 3a–3j against MV4-11 and A-549 cells were in general much higher than for MDA-MB-231 and UMUC-3 cells.
as §1

For test [6], the system named is urinary bladder carcinoma (UMUC-3) cells. As to the kind of experiment: Antiproliferative assay (MTT or SRB), UMUC-3. The settings on record: for IC50: Homo sapiens, UMUC3, UMUC-3, read-out: IC50 ± SD, antiproliferative activity; for Calculated Selectivity Index SI: IC50 Balb/3T3 / IC50 UMUC-3. It is filed as cell-based, human. On the procedure:
as §1

Test [7] addresses T1, human neutrophil elastase (HNE) (Homo sapiens, UniProt P08246).
T1 sequence (P08246 30-267): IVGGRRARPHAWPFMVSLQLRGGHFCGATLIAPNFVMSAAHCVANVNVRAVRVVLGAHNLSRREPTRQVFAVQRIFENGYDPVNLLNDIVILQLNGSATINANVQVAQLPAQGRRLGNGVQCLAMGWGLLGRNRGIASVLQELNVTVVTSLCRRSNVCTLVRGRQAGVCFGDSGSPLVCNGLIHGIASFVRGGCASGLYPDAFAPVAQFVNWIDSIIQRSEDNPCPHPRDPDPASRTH
The test can be described thus: Human neutrophil elastase inhibition assay (spectrofluorimetric, MeOSuc-AAPV-AMC substrate).
Method: The inhibition of human neutrophil elastase was carried out by the spectrofluorimetric method using N-methoxysuccinyl-Ala-Ala-Pro-Val-7-amido-4-methylcoumarin (MeOSuc-AAPV-AMC) as substrate.

Test [8] deals with lung carcinoma (A549) cells. The test can be described thus: Antiproliferative assay (MTT or SRB), A549. It is filed as cell-based, human. The settings on record: for IC50: Homo sapiens, A549, A-549, read-out: IC50 ± SD, antiproliferative activity; for Calculated Selectivity Index SI: IC50 Balb/3T3 / IC50 A-549. On the procedure: as §1

Consider two compounds from article PMC9321231.

Structures are written as SMILES.

As a reminder, the IC50 is the point on the concentration scale where inhibition reaches its midpoint. Consider `CCC1(CC)C(=O)N(c2ccc(-c3csc(Nc4cc(OC)c(OC)c(OC)c4)n3)cc2)C1=O` [3c, 3,3-Diethyl-1-(4-(2-(3,4,5-trimethoxyphenylamino)thiazol-4-yl)phenyl)azetidine-2,4-dione], for which the IC50 in test [1] was determined as 6.38 ± 0.71 µM; in test [4] it was 4.59 ± 2.03 µM; in test [5], 7.42 ± 1.04 µM; in test [6], 6.9 ± 0.21 µM; in test [7] it was 0.0382 ± 0.00491 µM; in test [8], 6.4 ± 0.08 µM. Further, the “Calculated Selectivity Index SI” value in test [1] is listed as 1.16; in test [4], 1.62; in test [6], 1.07; in test [8], 1.16. For the same compound, the “percentage of A549 cells undergoing apoptosis” value is 10.14 ± 0.76% in the test with A549 cells [2] (10 µM) and 14.67 ± 0.68% with A549 cells [2] (20 µM). For the same compound, the induction of necrosis entry in the test on A549 cells [2] was “no induction of necrosis was observed”. Besides, the entries for the “G2/M fraction of A549 cells” value in the test on A549 cells [3] (5 µM), in the test on A549 cells [3] (10 µM) and in the test with A549 cells [3] (20 µM) were 9.69 ± 0.77%, 15.68 ± 5.31% and 29.04 ± 1.09%, respectively.
As to `CCC1(CC)C(=O)N(c2ccc(-c3csc(Nc4ccc(S(N)(=O)=O)cc4)n3)cc2)C1=O` [3e, 4-(4-(4-(3,3-Diethyl-2,4-dioxoazetidin-1-yl)phenyl)thiazol-2-ylamino)benzenesulfo-namide], the IC50 in test [1] amounted to 6.42 ± 1.7 µM; in test [4], 6.23 ± 0.42 µM; in test [5], 6.57 ± 0.21 µM; in test [6] it was 7.49 ± 0.64 µM; in test [7], 0.035 ± 0.00388 µM; in test [8] it was 6.32 ± 0.89 µM. The “Calculated Selectivity Index SI” value in test [1] is 1.02; in test [4], 1.05; in test [6] it was 0.88; in test [8], 1.04. The entries for the “percentage of A549 cells undergoing apoptosis” value in the test on A549 cells [2] (5 µM), with A549 cells [2] (10 µM) and in the test on A549 cells [2] (20 µM) were 8.79 ± 0.50%, 14.45 ± 1.02% and 23.39 ± 0.31%, respectively. Besides, the induction of necrosis entry in the test with A549 cells [2] is recorded as “no induction of necrosis was observed”. Moreover, the “G2/M fraction of A549 cells” value was found to be 9.08 ± 0.69% with A549 cells [3] (5 µM), 10.83 ± 1.06% with A549 cells [3] (10 µM) and 35.78 ± 0.46% in the test with A549 cells [3] (20 µM).
